Tests used:
[1] = test system: bacterial tester strains TA98, TA100, TA1535 and TA97a and E. coli tester strain WP2 uvrA; assay: Ames genotoxicity (bacterial reverse mutation); settings: In vitro tox
Method: For genotoxicity, bacterial tester strains TA98, TA100, TA1535 and TA97a as described by Ames et al. (1975) and the E. coli tester strain WP2 uvrA as described by Green and Muriel (1976) were incubated with Compound 003 at 250, 75, 25, 7.5, 2.5, 0.75, 0.25, and 0.075 μg/well in 24 well plates either with or without liver homogenate (S9) purchased commercially (MolTox; Boone, N.C.) prepared from male Sprague Dawley rats that have been injected intraperitonealy with Aroclor 1254 (200 mg/mL in corn oil), at a dose of 500 mg/kg, 5 days before sacrifice. Mutagenicity is evaluated by counting the number of colonies that form on non-permissive media.

HDAC2 = HDAC2 (Homo sapiens (Human), UniProt Q92769); assay: HDAC enzyme assay, HDAC2; type: biochemical; settings: 24 hours pre-incubation with enzyme; read-out: IC50 (nM) HDAC2
Method: Compounds for testing were diluted in DMSO to 50 fold the final concentration and a ten point three fold dilution series was made. The compounds were diluted in assay buffer (50 mM HEPES, pH 7.4, 100 mM KCl, 0.001% Tween-20, 0.05% BSA, 20 μM tris(2-carboxyethyl)phosphine) to 6 fold their final concentration. The HDAC enzymes (purchased from BPS Biosciences) were diluted to 1.5 fold their final concentration in assay buffer and pre-incubated with the compounds for 24 hours prior to addition of the substrate.
The substrate tripeptide substrate 3 (synthesized in house) for each enzyme was equal to the Km as determined by a substrate titration curve. The substrates were diluted in assay buffer at 6× their final concentration with 0.3 μM sequencing grade trypsin (Sigma). The substrate/trypsin mix was added to the enzyme/compound mix, the plate was shaken for 60 seconds and placed into a Spectramax M5 microtiter plate reader. The development of fluorescence was monitored for 30 min and the linear rate of the reaction was calculated. The IC50 was determined using Graph Pad Prism by a four parameter curve fit. The IC50 values obtained for the compounds of this invention are found in Table 1. Examples of the curves are found in FIGS. 1 and 4.

[2] = test system: fetal β-like globin (HbG, γ); assay: Fetal globin induction assay in CD34+ cells isolated from human bone marrow; type: cell-based
Method: CD34+ cells isolated from human bone marrow were cultured in vitro using a method described by Bradner J E (Proc Natl Acad Sci USA. 2010 Jul. 13; 107(28):12617-22), which consists of a 7 day expansion phase in media that supports differentiation of cells towards the erythroid lineage followed by a differentiation phase for 3 days where erythroid cell development continues. At the end of the differentiation period these cells are primarily late erythroblasts. mRNA levels were determined by quantitative real time PCR using primer/probe sets designed to adult major β-globin (β), adult minor β-globin (δ), fetal β-like globin (HbG, γ), and embryonic β-like globin (ε). Protein levels were determined by flow cytometry using fluorescent antibodies against fetal hemoglobin (HbF) or adult hemoglobin (HbA).
In the experiment shown in FIG. 3, cells were differentiated in the presence of vehicle (DMSO) 0.3, 1 and 3 μM of Compound A, and of 0.3, 1, and 3 μM of Compound 003. In the experiment shown in FIG. 6, cells were differentiated in the presence of vehicle (DMSO) 0.3, 1 and 3 μM of Compound A, and of 0.3, 1, and 3 μM of Compound 005. Globin mRNA levels were determined at day 3 of differentiation.

Chain of HDAC2 (Q92769 whole entry): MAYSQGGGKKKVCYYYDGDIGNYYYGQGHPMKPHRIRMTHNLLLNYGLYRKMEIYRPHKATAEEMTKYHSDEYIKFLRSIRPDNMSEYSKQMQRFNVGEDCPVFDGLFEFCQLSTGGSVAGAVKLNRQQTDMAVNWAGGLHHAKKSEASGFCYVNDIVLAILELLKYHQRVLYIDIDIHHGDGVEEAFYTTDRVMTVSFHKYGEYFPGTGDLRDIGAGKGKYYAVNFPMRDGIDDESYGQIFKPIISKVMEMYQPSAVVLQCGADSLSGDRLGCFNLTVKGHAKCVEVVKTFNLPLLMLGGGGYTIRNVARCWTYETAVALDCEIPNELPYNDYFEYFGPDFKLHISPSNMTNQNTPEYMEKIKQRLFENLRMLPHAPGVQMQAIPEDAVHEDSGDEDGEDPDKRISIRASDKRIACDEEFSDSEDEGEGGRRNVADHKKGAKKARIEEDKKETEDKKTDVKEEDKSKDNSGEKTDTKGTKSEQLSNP

With `CN1CCN(C(=O)N2CCC(Nc3ccc(C(=O)Nc4cc(-c5cccs5)ccc4N)cc3)CC2)CC1` [Compound 005] the Ames [1] was “Neg”, the IC50 (HDAC2) was 4.9 nM and the “Cell based assay potency” value ([2]; lowest concentration to achieve a 2 fold increase in fetal globin gene expression over baseline) was 1000 nM. The “induction of % HbG” value ([2]; primary erythroid progenitors, 3 days differentiation (FIG. 6)) was “equivalent dose and time-dependent induction”.
